We go through three compounds from publication PMC7414031, “Correlation between hemolytic activity, cytotoxicity and systemic in vivo toxicity of synthetic antimicrobial peptides” (Scientific Reports, 2020).

Molecules are shown by their SMILES. In brackets after ≈: the same amount, converted by molar mass. Square brackets hold non-standard residues; d marks the D form. Peptide text beside a SMILES is read from it. N(1-naphthylmethyl)Gly = O=C(O)CNCc1cccc2ccccc12; Nphe = O=C(O)CNCc1ccccc1; NBuGly = CCCCNCC(=O)O A value given as a limit tells only on which side of the number the result lay.

Data set [1] in a line: in vitro. To be noted: human. The class given is cell-based, human. Here is the method: (§1) The haemolytic activity of the 24 structurally related peptides (Table 1) was evaluated in erythrocytes from four different species (human, canine, bovine and rat) employing standard methodology. The subsequent release of haemoglobin was used to assess haemolytic activity as function of peptide and peptidomimetic concentration, with concentrations ranging from 0.15 to 150 µM (Presented in whole in Supplementary information Table S1–S4).
(§2) Human and rat (Sprague–Dawley) blood samples were purchased by Bioreclamation IVT (Westbury, NY, USA), collected in tubes containing heparin as anticoagulant and stored at 4 °C before use. Dog and bovine whole blood was collected from in-house animals at Zoetis Animal Health, Kalamazoo, Michigan and stored at 4 °C in tubes containing heparin as anticoagulant. 10 mL of each whole blood sample were centrifuged at 1,500 × g for 5 min and the resulting plasma fraction was removed from the samples. The pellets were washed with an equal volume (10 mL) of saline, mixing by inversion. The centrifuging and washing steps were repeated 5 times. After the last washing step, a volume of PBS was added, and the resulting samples were diluted 1:10 with PBS to yield an RBC concentration of ~ 5 × 10^8 RBC/mL. The assay was performed in a 384-well polypropylene microplate (Greiner 784201, Greiner Bio-One International, GMBH) through a Bravo Liquid Handling Platform 384 system (Agilent Technologies, Santa Clara, CA, USA) according to the previously published procedures. The compounds were tested in serial 1:1 dilutions in PBS, with final concentrations ranging from 150 to 1.2 µM. Melittin was used as reference lytic peptide. 1% TritonX100 and PBS were used as positive and negative (diluent) controls, respectively. The final concentrations were obtained by adding to the wells 7 µL of each solution, melittin or PBS, followed by 63 µL of RBCs to each well. The plate was sealed, shaken on a plate shaker for 20 s, incubated for one hour at 37 °C. Finally, it was centrifuged at 1,500 × g for 5 min at room temperature. 60 µL of supernatants were removed from all plate wells via a Bravo 384 robot and transferred to a flat-bottomed 384-well plate (Greiner UV-Star #7810801, Greiner Bio-One International, GMBH). The plate was centrifuged at 1,000 g for 1 min to remove air bubbles and optical density was measured at 405 nm using a plate reader. Percentage of haemolysis was calculated with the following equation: %haemolysis=(absorbance of test sample)-absorbance of diluent/absorbance of positive control-absorbance of diluent×100.

The subject of another data set is human erythrocytes. In words: in vitro. The settings on record: for IC10 haemolysis: human erythrocytes; for IC50: red cells of human. The class given is cell-based. The method, then: as §1, §2
Data set [2] in a line: in vitro. In kind it is cell-based, dog. The settings on record: dog. Here is the method:
as §1, §2

The next data set concerns canine erythrocytes. Description: in vitro. The class given is cell-based, dog. The settings on record: for IC10 haemolysis: canine erythrocytes; for IC50: red cells of canine. The method, then:
as §1, §2

Data set [3] in a line: in vitro. To be noted: Sprague-Dawley, rat. The class given is cell-based, rat (Sprague–Dawley). The method, then: as §1, §2
The next data set concerns rat erythrocytes. Description: in vitro. The class given is cell-based, rat (Sprague–Dawley). The settings on record: for IC10 haemolysis: rat erythrocytes; for IC50: red cells of rat. The method, then: as §1, §2
Data set [4] in a line: in vitro. In kind it is cell-based, bovine. The settings on record: bovine. The method, then:
as §1, §2

The next data set has as its system bovine erythrocytes. In words: in vitro. In kind it is cell-based. To be noted: bovine erythrocytes. Here is the method: as §1, §2
Data set [5] deals with Staphylococcus pseudintermedius. The settings on record: cited from earlier work.
In the next data set the test system is Staphylococcus aureus. Set-up: method as in PMID 30842436. To be noted: cited from earlier work.
The next data set deals with Pseudomonas aeruginosa. Set-up: method as in PMID 30842436. The settings on record: cited from earlier work.

Regarding `CCCCN(CC(=O)N[C@@H](CCCCN)C(=O)N(CC(=O)N(CC(=O)N(CC(N)=O)Cc1cccc2ccccc12)Cc1ccccc1)Cc1cccc2ccccc12)C(=O)[C@H](CCCCN)NC(=O)[C@@H](N)CCCCN` [Compound 14, Lys-Lys-(N-Bu)Gly-Lys-(N1-Nal)Gly-(N-Phe)Gly-(N1-Nal)Gly] (H-KK[NBuGly]K[N(1-naphthylmethyl)Gly][Nphe][N(1-naphthylmethyl)Gly]-NH2), the hemolysis at 1 h, 150 µM is 66.4% in the data set “in vitro [1]”, 28.1% in “in vitro [2]”, 31.6% in the data set “in vitro [3]” and 13.9% in “in vitro [4]”. The “Haemolytic activity (in words)” value with human erythrocytes is “amongst the top five most haemolytic compounds”. Further, the IC10 haemolysis in the data set on human erythrocytes turned out to be 54.0 µM; in the data set with canine erythrocytes, 26.23 µM; in the data set on rat erythrocytes, 93.1 µM; in the data set on bovine erythrocytes, 123.9 µM. The half-inhibitory concentration (IC50) (usually the concentration that inhibits the measured activity by half) in the data set with human erythrocytes is 118 µM; with canine erythrocytes, over 150 µM; with rat erythrocytes, over 150 µM. Also, in data set [5], the “MIC against Staphylococcus pseudintermedius” value is given as 4 µg/mL (≈ 3.79 µM). In addition, the “MIC against Staphylococcus aureus” value in the data set on Staphylococcus aureus is 8 to 16 µg/mL. Moreover, the “MIC against Pseudomonas aeruginosa” value in the data set on Pseudomonas aeruginosa was 32 µg/mL (≈ 30.3 µM).
In the case of `CC(C)C[C@H](NC(=O)[C@H](CCCCN)NC(=O)[C@H](Cc1cccc2ccccc12)NC(=O)[C@H](Cc1ccccc1)NC(=O)[C@@H](N)Cc1cccc2ccccc12)C(=O)N[C@@H](CCCCN)C(=O)N[C@@H](CCCCN)C(N)=O` [Compound 16, (1-Nal)Ala-Phe-(1-Nal)Ala-Lys-Leu-Lys-Lys] (HELM PEPTIDE1{[N[C@@H](Cc1cccc2ccccc12)C(=O)[*:2]].F.[O=C([C@H](Cc1cccc2ccccc12)N[*:1])[*:2]].K.L.K.K.[am]}$$$$V2.0), the hemolysis at 1 h, 150 µM in “in vitro [1]” stood at 55.5%; in “in vitro [2]” it was 27.7%; in the data set “in vitro [3]” it was 11%; in the data set “in vitro [4]”, 30.6%. The IC10 haemolysis in the data set on human erythrocytes is recorded as 47.4 µM; with canine erythrocytes, 16.4 µM; in the data set with rat erythrocytes, 145.0 µM; in the data set on bovine erythrocytes, 45.2 µM. Also, the 50% inhibitory concentration (IC50) was 134 µM in the data set with human erythrocytes, over 150 µM in the data set with canine erythrocytes and over 150 µM in the data set with rat erythrocytes. For the same compound, in [5], the “MIC against Staphylococcus pseudintermedius” value was 8 to 16 µg/mL. For the same compound, the “MIC against Staphylococcus aureus” value with Staphylococcus aureus was 16 to 32 µg/mL. In addition, the “MIC against Pseudomonas aeruginosa” value in the data set with Pseudomonas aeruginosa is 64 µg/mL (≈ 60.6 µM).
`CC(C)C[C@H](NC(=O)[C@H](CCCCN)NC(=O)[C@H](CCCCN)NC(=O)[C@@H](N)CCCCN)C(=O)N[C@@H](Cc1ccc2ccccc2c1)C(=O)N[C@@H](Cc1ccc(O)cc1)C(=O)N[C@@H](Cc1ccc2ccccc2c1)C(N)=O` [Compound 17, Lys-Lys-Lys-Leu-(2-Nal)Ala-Tyr-(2-Nal)Ala] (HELM PEPTIDE1{K.K.K.L.[O=C([C@H](Cc1ccc2ccccc2c1)N[*:1])[*:2]].Y.[O=C([C@H](Cc1ccc2ccccc2c1)N[*:1])[*:2]].[am]}$$$$V2.0): the hemolysis at 1 h, 150 µM in “in vitro [1]” was 78.1%; in “in vitro [2]”, 100%; in the data set “in vitro [3]”, 100%; in the data set “in vitro [4]”, 19.9%. Moreover, the IC10 haemolysis is on record as 61.1 µM in the data set with human erythrocytes, 59.6 µM in the data set on canine erythrocytes, 74.7 µM in the data set with rat erythrocytes and 81.4 µM with bovine erythrocytes. In addition, the IC50 in the data set on human erythrocytes turned out to be 109 µM; with canine erythrocytes, 87 µM; in the data set with rat erythrocytes it was 87.7 µM. For the same compound, the “MIC against Staphylococcus pseudintermedius” value in data set [5] was 16 µg/mL (≈ 14.9 µM). Besides, the “MIC against Staphylococcus aureus” value with Staphylococcus aureus is over 64 µg/mL. Also, the “MIC against Pseudomonas aeruginosa” value in the data set with Pseudomonas aeruginosa is on record as over 64 µg/mL.
